Results as given in patent US20170202792A1, “METHOD FOR TREATING TAU-ASSOCIATED DISEASES” (NATIONAL TAIWAN NORMAL UNIVERSITY, priority 2016, published 2017).

Experiments:
[1] = test system: GFAP (astrocytes) and Iba1 (microglia); test: Immunohistochemical staining of GFAP and Iba1 (neuro-inflammation in hippocampus); type: in vivo, mouse; settings: 0.25 mg/kg i.p. daily 28 days
Description: (§1) Hyperglycemia was induced by streptozotocin (STZ) to accelerated Alzheimer's disease progression of 6-month-old male transgenic 3×Tg−AD mice. Half of the 3×Tg−AD mice (n=30) received STZ (100 mg/kg) intraperitoneal injection at days 1, 2, 8, and 9 respectively as the high blood glucose group (HBG); another half of the 3×Tg-AD mice (n=30) received sodium citrate (0.1 M) at the same time points as the normal blood glucose group (NBG). Then, HBG and NBG were divided into two groups respectively to give four groups such as NBG-compound (I), HBG-compound (I), NBG-DMSO, and HBG-DMSO with n=15 in each group; wherein 0.25 mg/kg of compound (I) (in 30 μL) were intraperitoneal injected into those mice of NBG-compound (I) and HBG-compound (I) groups daily since day 14 for 28 days, and 30 μL of DMSO solvent were intraperitoneal injected into those mice of NBG-DMSO and HBG-DMSO groups daily since day 14 for 28 days. Both mouse body weight (BW) and blood glucose (BG) were monitored every week.
After the brain tissue of the mice were fixed and dehydrated, the tissue was cryosectioned (30 μm). The cryosections were then washed with phosphate buffered saline (PBS) three times. After the optimal cutting temperature compound (OCT) was removed, 3% H2O2was used to remove the endogenous peroxidase, and the cryosection was blocked by the blocking solution for 1 hour to reduce non-specific antigen reactions. The primary antibodies GFAP (astrocytes) and Iba1 (microglia) were added and reacted for 12 hours, the secondary antibody (1:200 dilution in blocking solution, Vecter) was added and reacted for 1 hour, and then, the avidin-biotin complex was added and reacted for 1 hour. Finally, DAB-kit was used for coloring. All the stained sections were attached to the slides, dried, dehydrated, and mounted for imaging and quantification (Image Pro Plus) to evaluate the neuro-inflammation in mouse hippocampus. The quantification results were shown in Table 2, wherein ↑↑↑, ↓↓↓:p<0.001.

Aβ40, Aβ42 = test: Immunohistochemical staining of Aβ in brain tissue; type: in vivo, mouse; settings: 0.25 mg/kg i.p. daily 28 days
Description: as §1
After the brain tissue of the mice was fixed and dehydrated, the tissue was cryosectioned (30 μm). The cryosections were then washed with phosphate buffered saline (PBS) for three times. After the optimal cutting temperature compound (OCT) was removed, 3% H2O2 was used to remove the endogenous peroxidase, and the cryosections were blocked by the blocking solution for 1 hour to reduce the non-specific antigen reactions. The primary antibodies (Aβ40, Aβ42) were added and reacted for 12 hours, the secondary antibody (1:200 dilution in blocking solution, Vecter) was added and reacted for 1 hour, and then, the avidin-biotin complex was added and reacted for 1 hour. Finally, DAB-kit was used for coloring. All the stained sections were attached to the slides, dried, dehydrated, and mounted for imaging and quantification (Image Pro Plus). The quantification results were shown in Table 1, wherein ↑, ↓:p<0.05; ↑↑, ↓↓:p<0.01.

[2] = Body weight monitoring in STZ 3×Tg-AD mice; type: in vivo, mouse; settings: 0.25 mg/kg i.p. daily 28 days; NBG vs HBG groups treated with compound (I)
Description: as §1

[3] = test system: phosphorylated tau protein; test: Western blot of mouse hippocampal tissue, phosphorylated tau; type: in vivo; settings: hyperglycemic 3×Tg-AD mice; 0.25 mg/kg i.p. daily vs DMSO
Description: (§2) Hyperglycemia was induced by streptozotocin (STZ) to accelerated Alzheimer's disease progression of 6-month-old male transgenic 3×Tg−AD mice. Half of the 3×Tg−AD mice (n=30) received STZ (100 mg/kg) intraperitoneal injection at days 1, 2, 8, and 9 respectively as the high blood glucose group (HBG); another half of the 3×Tg-AD mice (n=30) received sodium citrate (0.1 M) at the same time points as the normal blood glucose group (NBG). […] Both mouse body weight (BW) and blood glucose (BG) were monitored every week.
(§3) Mice were sacrificed after MWM and hippocampi were isolated for analyzing several protein expression levels by means of western blot. The protein of the hippocampi was quantified by BCA assay (Pierce), wherein 25 μg of protein was separated by SDS-PAGE and then transferred to PVDF film. Next, protein was blocked for reducing non-specific signals, and reacted with primary antibodies (GSK-3β, pS9-GSK-3β (non-activated), pT216-GSK-3β(activated), pS202Tau, pS396Tau, pT231Tau, HT7 (total Tau)), and secondary antibodies (anti-rabbit, anti-mouse IgG HRP-linked antibody; 1:10,000; Amersham Pharmacia Biotech). β-actin was used as the loading control, ECL kit was used to detect the antigen-antibody complex, and LAS-4000 (Fujifilm) was used for imaging and quantification.

GSK-3β = test: Western blot of mouse hippocampal tissue, GSK-3β; type: in vivo; settings: hyperglycemic 3×Tg-AD mice; 0.25 mg/kg i.p. daily
Description: as §2, §3

[4] = HBG (high blood glucose, STZ) 3×Tg-AD mice
[5] = NBG (normal blood glucose) 3×Tg-AD mice

For `CCCCC/C=C\C/C=C\C/C=C\C/C=C\CCCC(=O)Nc1ccc(O)cc1` [compound (I), (5Z, 8Z, 11Z,14Z)-N-(4-Hydroxyphenyl)icosa-5 ,8 , 11,14-tetraen amide], the GFAP staining quantification ([1]; HBG 3×Tg-AD mice) was 15.63 ± 2.05↓↓↓, the Iba1 staining quantification ([1]; HBG 3×Tg-AD mice) was 29.43 ± 0.78↓↓↓ and the GFAP staining quantification ([1]; NBG 3×Tg-AD mice) was 3.33 ± 1.02. The Iba1 staining quantification ([1]; NBG 3×Tg-AD mice) was 34.25 ± 2.19, the Aβ40 staining quantification (Aβ40, Aβ42; [4]) was 164.78 ± 9.51↓↓ and the Aβ42 staining quantification (Aβ40, Aβ42; [4]) was 26.91 ± 1.28↓. For the same compound, the Aβ40 staining quantification (Aβ40, Aβ42; [5]) was 181.88 ± 4.17, the Aβ42 staining quantification (Aβ40, Aβ42; [5]) was 29.13 ± 0.64 and the “body weight (BW)” value [2] was “no significant difference in BW”. For the same compound, the “expression level of phosphorylated tau protein in hippocampus” value [3] was “lower than that of the mice administrated with DMSO” and the “GSK-3β inhibition in hippocampus (pT216-GSK-3β/GSK-3β, pS9-GSK-3β/GSK-3β)” value (GSK-3β) was “exerts inhibition for GSK-3β”.
